The values that follow come from patent US9227977B2, “Phosphoinositide 3-kinase inhibitors” (RESPIVERT LTD., priority 2013, dated 2016).

One data set has as its target PI3K γ (Homo sapiens (Human), UniProt P48736). The data set can be described thus: PI3K enzyme inhibition assay (HTRF TR-FRET). The data set is classed as biochemical. From the text:
(§1) The PI3K enzymes catalyse the phosphorylation of phosphatidylinositol 4,5-biphosphate (PIP2) to phosphatidylinositol 3,4,5-triphosphate (PIP3) in the presence of ATP and Mg^2+ ions. The PIP3 product can be detected by displacement of biotin-PIP3 from energy transfer complexes consisting of europium labelled anti-GST monoclonal antibody, a GST-tagged Pleckstrin homology (PH) domain, biotinylated PIP3 and streptavidin-allophycocyanin (APC) by the time-resolved fluorescence resonance energy transfer (TR-FRET) (HTRF®PI3K enzyme assay, Millipore). Excitation, at 330 nm, of europium in the complex results in an energy transfer to the APC and a fluorescent emission at 665 nm although europium itself emits at its characteristic wavelength of 620 nm. The PIP3 product formed by PI3K activity displaces biotin-PIP3 from the complex and results in a loss of energy transfer (decreasing signal).
(§2) The compound to be tested was added, at the desired final concentrations, to a mixture of PIP2 substrate and a recombinant PI3K enzyme (either α, β or δ isoforms, ex Millipore, or γ isoform [p110γ+p101 construct], ex United States Biological, Swampscott, Mass.) and the mixture incubated for 2 hr at RT. […] A stopping solution containing biotinylated PIP3 and the detection mix containing the GST tagged GRP1 pleckstrin homology (PH) domain and fluorophores were then added and the mixture was incubated at RT for 15-18 hr, prior to detection in a fluorescence microplate reader (Synergy 4, BioTek UK, Bedfordshire, UK).
(§3) The results were calculated according to the formula: APC signal (emission at 665 nm)/europium signal (emission at 620 nm)×10^4.
A general note: In TR-FRET formats the signal depends on donor and acceptor labels being close together.

The target in a further data set is PI3K δ (Homo sapiens (Human), UniProt O00329). The data set can be described thus: PI3K enzyme inhibition assay (HTRF TR-FRET). The data set is classed as biochemical.
Text: as §1, §2, §3

For the next data set, the target named is PI3K α (Homo sapiens (Human), UniProt P42336). The data set can be described thus: PI3K enzyme inhibition assay (HTRF TR-FRET). The data set is classed as biochemical.
Text: as §1, §2, §3

The target in another data set is PI3K β (Homo sapiens (Human), UniProt P42338). The data set can be described thus: PI3K enzyme inhibition assay (HTRF TR-FRET). In kind it is biochemical. The note with it: read-out: PI3 Kinase Inhibition IC50 value at state isozyme, β.
Text: as §1
The compound to be tested was added, at the desired final concentrations, to a mixture of PIP2 substrate and a recombinant PI3K enzyme (either α, β or δ isoforms, ex Millipore, or γ isoform [p110γ+p101 construct], ex United States Biological, Swampscott, Mass.) and the mixture incubated for 2 hr at RT. Following this incubation period, ATP (10 μM) was added to the enzyme/compound/PIP2 substrate mixture and the resulting mixture was incubated for a further 30 min at RT. A stopping solution containing biotinylated PIP3 and the detection mix containing the GST tagged GRP1 pleckstrin homology (PH) domain and fluorophores were then added and the mixture was incubated at RT for 15-18 hr, prior to detection in a fluorescence microplate reader (Synergy 4, BioTek UK, Bedfordshire, UK).
The results were calculated according to the formula: APC signal (emission at 665 nm)/europium signal (emission at 620 nm)×10^4. The percentage inhibition of each reaction was calculated relative to DMSO treated control, and the 50% inhibitory concentration (IC50 value) then calculated from the concentration-response curve.

A further data set has as its system d-U937 cells. The data set can be described thus: MTT assay, cell viability. In kind it is cell-based, human. The note with it: 10 μg/mL. The method, then: PMA-differentiated U937 cells were pre-incubated with test compound (10 μg/mL) or vehicle for 4 hr in 5% FCS or 10% FCS for 24 hr. The supernatant was replaced with new media (200 μL) and MTT stock solution (10 μL, 5 mg/mL) was added to each well. After 1 hr incubation, the media were removed, 200 μL of DMSO was added to each well and the plates were shaken lightly for 1 hr prior to reading the absorbance at 550 nm. The percentage loss of cell viability was calculated for each well relative to vehicle (0.5% DMSO)-treatment.
For orientation: Tetrazolium assays rely on reduction of a dye to a coloured formazan, in cell work by metabolically active cells.

Data set [1] has as its system cigarette smoke-induced cell accumulation and biomarkers in murine BALF. The data set can be described thus: Cigarette smoke model. The note with it: 0.3-10 mg/kg, p.o. The data set is classed as in vivo, mouse.
Data set [2] shares this test system. The data set can be described thus: Cigarette smoke model. In kind it is in vivo, mouse. The conditions noted are these: dose used for co-administration. The method, then:
A/J mice (males, 5 weeks old) were exposed to cigarette smoke (4% cigarette smoke, diluted with compressed air) for 30 min/day for 11 days using a Tobacco Smoke Inhalation Experiment System for small animals (Model SIS-CS; Sibata Scientific Technology, Tokyo, Japan). Test substances were administered once daily for 3 days after the final cigarette smoke exposure (intra-nasal dose comprising 35 μL of solution in 50% DMSO/isotonic saline).
At 12 hr after administration of the last dose, animals were anesthetized, the trachea was cannulated and bronchial alveolar lavage (BAL) was carried out by the instillation into and then withdawal from the lungs, of PBS (100 mL/kg). Total cell numbers in the BALF samples were measured using a haemocytometer under a phase-contrast microscope. The proportions of alveolar macrophages and neutrophils were determined by FACS analysis using anti-mouse MOMA2-FITC (macrophage) or anti-mouse 7/4 (neutrophil).
Cells were suspended in PBS and were incubated with anti-MOMA2-FITC (2 μg/mL, Catalogue no SM065F, Acris Antibodies GmbH, Herford, Germany) or anti-7/4-FITC (2 μg/mL, Catalogue no CL050F, Acris Antibodies GmbH, Herford, Germany) for 30 min at 30° C., and also counterstained with propidium iodide (2 μg/mL) to allow exclusion of necrotic cells. The cells were washed with PBS, and transferred to FACS tubes. Samples was set in a flow cytometer (ALTRA II; Beckman Coulter Japan, Tokyo, Japan), and a single-parameter FL2 [PMT2] (FITC) histogram with log x-axis was plotted to illustrate relative intensity of FITC.
Data files are stored for subsequent analysis using Kaluza analysis software (ver. 1.2) to calculate the proportion of each cell type. The levels of CXCL1(KC), MCP1, TNFα, IL-17 or osteopontin in BALF were determined using Quentikine® mouse KC, MCP1, TNFα, IL-17 or osteopontin ELISA kit (R&D systems, Inc., Minneapolis, Minn., USA). The presence of malondialdehyde was measured using OxiSelect® TBARS Assay Kit (MDA Quantitation; Cell Biolabs Inc, San Diego, Calif., USA).

Structures are written as SMILES. Where two headings read alike, the source gives them in different places.

PI3K δ, sequence (O00329 whole entry, species assumed): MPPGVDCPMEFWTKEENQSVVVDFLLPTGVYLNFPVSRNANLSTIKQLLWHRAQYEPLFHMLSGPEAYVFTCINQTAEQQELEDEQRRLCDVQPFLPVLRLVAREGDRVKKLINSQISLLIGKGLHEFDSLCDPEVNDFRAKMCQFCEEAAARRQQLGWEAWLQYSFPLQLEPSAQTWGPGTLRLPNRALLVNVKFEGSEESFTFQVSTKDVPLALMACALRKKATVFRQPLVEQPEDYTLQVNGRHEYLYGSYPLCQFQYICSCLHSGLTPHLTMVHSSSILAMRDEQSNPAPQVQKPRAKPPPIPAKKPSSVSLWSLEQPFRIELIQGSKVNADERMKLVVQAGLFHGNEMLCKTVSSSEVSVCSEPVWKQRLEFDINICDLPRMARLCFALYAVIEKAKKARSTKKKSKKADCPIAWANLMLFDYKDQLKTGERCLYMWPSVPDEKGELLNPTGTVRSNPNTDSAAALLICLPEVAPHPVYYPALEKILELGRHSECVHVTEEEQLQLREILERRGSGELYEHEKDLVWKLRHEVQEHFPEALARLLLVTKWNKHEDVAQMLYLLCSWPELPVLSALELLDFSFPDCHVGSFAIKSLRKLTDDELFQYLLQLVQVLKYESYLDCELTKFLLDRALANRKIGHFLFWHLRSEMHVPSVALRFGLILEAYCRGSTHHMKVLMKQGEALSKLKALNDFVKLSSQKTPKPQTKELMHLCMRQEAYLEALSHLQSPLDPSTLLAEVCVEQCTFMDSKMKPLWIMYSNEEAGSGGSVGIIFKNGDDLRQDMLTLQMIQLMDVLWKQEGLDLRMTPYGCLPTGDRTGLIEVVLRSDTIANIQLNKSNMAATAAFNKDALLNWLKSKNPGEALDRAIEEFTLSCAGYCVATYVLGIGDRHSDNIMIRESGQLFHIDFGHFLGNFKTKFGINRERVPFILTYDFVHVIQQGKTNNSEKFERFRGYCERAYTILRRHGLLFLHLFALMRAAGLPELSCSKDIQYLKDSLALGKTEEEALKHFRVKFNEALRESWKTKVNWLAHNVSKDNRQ
PI3K δ, sequence (P27986 whole entry partner, species assumed): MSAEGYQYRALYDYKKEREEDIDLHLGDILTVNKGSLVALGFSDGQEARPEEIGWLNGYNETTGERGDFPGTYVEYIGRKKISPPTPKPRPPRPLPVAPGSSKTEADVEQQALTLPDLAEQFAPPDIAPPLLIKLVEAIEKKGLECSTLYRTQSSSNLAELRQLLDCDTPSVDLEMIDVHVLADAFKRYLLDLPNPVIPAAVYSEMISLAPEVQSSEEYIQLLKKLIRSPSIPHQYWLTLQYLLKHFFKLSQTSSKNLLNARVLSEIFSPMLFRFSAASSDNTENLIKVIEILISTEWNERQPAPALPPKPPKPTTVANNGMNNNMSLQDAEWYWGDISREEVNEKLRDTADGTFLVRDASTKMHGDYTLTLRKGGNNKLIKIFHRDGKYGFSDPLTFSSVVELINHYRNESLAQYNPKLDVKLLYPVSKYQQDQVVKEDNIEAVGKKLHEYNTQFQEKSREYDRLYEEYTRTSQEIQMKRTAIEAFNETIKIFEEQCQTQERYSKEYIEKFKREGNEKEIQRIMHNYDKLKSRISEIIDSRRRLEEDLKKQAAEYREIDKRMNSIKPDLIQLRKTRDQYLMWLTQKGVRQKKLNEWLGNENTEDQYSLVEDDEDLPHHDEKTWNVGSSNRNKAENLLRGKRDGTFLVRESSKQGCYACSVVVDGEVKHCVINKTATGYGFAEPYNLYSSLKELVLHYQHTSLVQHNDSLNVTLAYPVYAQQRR
PI3K γ, sequence (P48736 whole entry, species assumed): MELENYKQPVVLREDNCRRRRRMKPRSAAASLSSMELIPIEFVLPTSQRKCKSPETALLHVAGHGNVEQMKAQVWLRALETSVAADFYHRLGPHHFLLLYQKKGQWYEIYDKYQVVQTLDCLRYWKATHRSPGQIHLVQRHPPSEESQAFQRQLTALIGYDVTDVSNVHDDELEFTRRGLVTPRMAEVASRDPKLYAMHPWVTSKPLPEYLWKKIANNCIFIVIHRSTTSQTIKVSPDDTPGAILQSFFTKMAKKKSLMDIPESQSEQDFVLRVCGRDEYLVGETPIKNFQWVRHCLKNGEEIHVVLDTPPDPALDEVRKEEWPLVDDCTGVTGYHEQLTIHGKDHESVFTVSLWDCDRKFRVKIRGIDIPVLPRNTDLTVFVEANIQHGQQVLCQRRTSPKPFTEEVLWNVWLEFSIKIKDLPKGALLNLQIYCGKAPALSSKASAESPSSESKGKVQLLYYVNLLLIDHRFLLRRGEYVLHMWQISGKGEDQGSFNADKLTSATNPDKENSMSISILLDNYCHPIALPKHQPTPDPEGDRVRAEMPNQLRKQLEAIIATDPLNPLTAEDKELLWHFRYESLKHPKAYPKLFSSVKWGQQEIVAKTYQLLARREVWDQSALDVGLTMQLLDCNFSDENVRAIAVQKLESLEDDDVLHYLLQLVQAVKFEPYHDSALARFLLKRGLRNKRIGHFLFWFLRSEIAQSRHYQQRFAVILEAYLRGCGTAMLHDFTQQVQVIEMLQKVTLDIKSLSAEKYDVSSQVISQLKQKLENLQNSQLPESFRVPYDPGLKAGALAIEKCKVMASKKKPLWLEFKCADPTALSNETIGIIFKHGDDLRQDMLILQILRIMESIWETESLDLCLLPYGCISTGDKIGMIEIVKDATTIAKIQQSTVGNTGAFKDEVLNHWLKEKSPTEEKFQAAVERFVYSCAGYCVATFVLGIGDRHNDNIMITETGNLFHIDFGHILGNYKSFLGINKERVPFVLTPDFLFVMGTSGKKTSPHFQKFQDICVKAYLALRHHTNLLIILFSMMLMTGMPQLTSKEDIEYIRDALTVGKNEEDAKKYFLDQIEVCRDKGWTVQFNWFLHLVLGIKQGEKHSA
PI3K γ, sequence (Q8WYR1 whole entry partner, species assumed): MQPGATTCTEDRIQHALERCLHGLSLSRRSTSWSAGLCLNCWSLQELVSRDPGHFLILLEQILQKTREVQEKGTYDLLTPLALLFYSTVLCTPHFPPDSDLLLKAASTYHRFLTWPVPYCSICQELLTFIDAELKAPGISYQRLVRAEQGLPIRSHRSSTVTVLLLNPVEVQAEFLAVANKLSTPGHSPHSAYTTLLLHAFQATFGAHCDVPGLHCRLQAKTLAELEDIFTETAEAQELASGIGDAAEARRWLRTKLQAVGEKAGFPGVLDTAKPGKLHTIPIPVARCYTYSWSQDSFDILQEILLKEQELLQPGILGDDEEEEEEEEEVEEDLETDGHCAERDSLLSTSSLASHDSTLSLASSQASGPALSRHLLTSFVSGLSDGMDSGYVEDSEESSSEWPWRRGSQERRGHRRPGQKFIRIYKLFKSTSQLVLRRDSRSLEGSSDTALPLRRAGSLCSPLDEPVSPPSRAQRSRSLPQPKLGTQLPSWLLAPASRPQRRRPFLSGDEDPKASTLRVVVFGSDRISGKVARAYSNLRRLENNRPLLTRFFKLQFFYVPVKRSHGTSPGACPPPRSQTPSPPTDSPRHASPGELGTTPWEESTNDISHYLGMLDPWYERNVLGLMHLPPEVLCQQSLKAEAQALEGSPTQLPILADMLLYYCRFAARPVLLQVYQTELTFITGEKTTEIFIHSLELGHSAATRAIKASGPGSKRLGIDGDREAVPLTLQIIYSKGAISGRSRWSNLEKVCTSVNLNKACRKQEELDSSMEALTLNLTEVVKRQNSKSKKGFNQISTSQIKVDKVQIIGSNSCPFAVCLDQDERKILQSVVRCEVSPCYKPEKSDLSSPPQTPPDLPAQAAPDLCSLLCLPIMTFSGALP
PI3K α, sequence (P42336 whole entry, species assumed): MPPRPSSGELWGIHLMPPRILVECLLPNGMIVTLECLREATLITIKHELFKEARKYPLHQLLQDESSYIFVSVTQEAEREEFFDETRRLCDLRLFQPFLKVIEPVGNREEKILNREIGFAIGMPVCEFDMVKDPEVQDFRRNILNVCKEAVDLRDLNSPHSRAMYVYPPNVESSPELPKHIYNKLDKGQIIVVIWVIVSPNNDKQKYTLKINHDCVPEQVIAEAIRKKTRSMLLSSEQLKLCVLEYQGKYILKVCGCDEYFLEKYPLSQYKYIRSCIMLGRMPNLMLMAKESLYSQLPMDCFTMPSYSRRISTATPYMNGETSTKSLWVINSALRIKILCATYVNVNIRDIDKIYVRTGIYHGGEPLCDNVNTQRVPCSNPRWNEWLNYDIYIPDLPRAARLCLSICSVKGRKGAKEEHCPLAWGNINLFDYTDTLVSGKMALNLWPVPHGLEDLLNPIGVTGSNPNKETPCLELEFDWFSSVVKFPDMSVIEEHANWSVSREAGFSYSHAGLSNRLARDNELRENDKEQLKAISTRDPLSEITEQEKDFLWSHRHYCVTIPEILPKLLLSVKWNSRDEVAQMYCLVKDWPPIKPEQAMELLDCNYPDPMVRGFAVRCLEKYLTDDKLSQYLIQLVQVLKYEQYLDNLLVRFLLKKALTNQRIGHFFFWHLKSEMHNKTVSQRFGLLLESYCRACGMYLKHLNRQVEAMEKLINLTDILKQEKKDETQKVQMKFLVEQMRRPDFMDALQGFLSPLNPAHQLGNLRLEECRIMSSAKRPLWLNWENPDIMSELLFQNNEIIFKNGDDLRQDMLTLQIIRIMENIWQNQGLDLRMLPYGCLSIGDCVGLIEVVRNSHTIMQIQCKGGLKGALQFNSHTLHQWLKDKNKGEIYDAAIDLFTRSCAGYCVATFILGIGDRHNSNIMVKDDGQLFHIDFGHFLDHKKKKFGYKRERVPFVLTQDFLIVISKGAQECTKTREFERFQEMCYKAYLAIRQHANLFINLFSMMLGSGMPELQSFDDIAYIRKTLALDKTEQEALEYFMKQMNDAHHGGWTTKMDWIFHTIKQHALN
PI3K α, sequence (P27986 whole entry partner, species assumed): as the sequence (P27986 whole entry partner, species assumed) above

`COCCOCCOCC#Cc1cccc2nc(Cn3nc(-c4cccc(O)c4)c4c(N)ncnc43)n(Cc3ccccc3F)c(=O)c12` [Example 50, 2-((4-amino-3-(3-hydroxyphenyl)-1H-pyrazolo[3,4-d]pyrimidin-1-yl)methyl)-3-(2-fluorobenzyl)-5-(3-(2-(2-methoxyethoxy)ethoxy)prop-1-ynyl) quinazolin-4(3H)-one, reference compound]: the IC50 (in general, the concentration that gives 50% inhibition) on PI3K γ (read-out: IC50 Values for PI3K inhibition at isozyme indicated, PI3K γ) came out at 120 nM; at PI3K δ (read-out: IC50 Values for PI3K inhibition at isozyme indicated, PI3K δ), 5.7 nM; at PI3K α (read-out: IC50 Values for PI3K inhibition at isozyme indicated, PI3K α) it was 653 nM.

For `Nc1ncnc2c1c(-c1cc(O)cc(F)c1)nn2Cc1nc2cccc(C#CCOCCOCCO)c2c(=O)n1Cc1ccccc1C(F)(F)F` [Compound (Ia), 2-((4-Amino-3-(3-fluoro-5-hydroxyphenyl)-1H-pyrazolo[3,4-d]pyrimidin-1-yl)methyl)-5-(3-(2-(2-hydroxyethoxy)ethoxy)prop-1-yn-1-yl)-3-(2-(trifluoromethyl)benzyl)quinazolin-4(3H)-one], the IC50 on PI3K β is more than 14200 nM; at PI3K γ (read-out: PI3 Kinase Inhibition IC50 value at state isozyme, γ), 577 nM; on PI3K δ (read-out: PI3 Kinase Inhibition IC50 value at state isozyme, δ), 17 nM; on PI3K α (read-out: PI3 Kinase Inhibition IC50 value at state isozyme, α), more than 14200 nM. Further, on PI3K γ, the “inhibition of PI3K γ compared with compound of formula (I) (in words)” value is reported as “significantly less active”. Moreover, at PI3K δ, the “inhibition of PI3K δ compared with compound of formula (I) (in words)” value was “significantly less active”. Also, in the data set on d-U937 cells (4 hr), the “Cell Viability MTT Assay in d-U937 cells at 4 hr” value is recorded as “−ve (−ve indicates a value of <30% inhibition at 10 μg/mL)”. Further, the “Cell Viability MTT Assay in d-U937 cells at 24 hr” value in the data set on d-U937 cells (24 hr) is given as “−ve (−ve indicates a value of <30% inhibition at 10 μg/mL)”.

Turning to `C[C@@H]1C[C@H]2[C@@H]3CCC4=CC(=O)C=C[C@]4(C)[C@@]3(F)[C@@H](O)C[C@]2(C)[C@@]1(O)C(=O)CO` [dexamethasone], in data set [1], the “activity in cigarette smoke model (in words)” value is “inactive”.

Turning to `CCC(=O)O[C@]1(C(=O)SCF)[C@H](C)C[C@H]2[C@@H]3C[C@H](F)C4=CC(=O)C=C[C@]4(C)[C@@]3(F)[C@@H](O)C[C@@]21C` [fluticasone propionate, reference compound], in data set [2], the “effect as monotherapy in cigarette smoke model (in words)” value was “lacks any significant effect”.
